Measurements published in US11401243B2, “Quinoline derived small molecule inhibitors of nicotinamide N-methyltransferase (NNMT) and uses thereof” (priority 2017, dated 2022).
Like-named read-outs stand apart in the source and are kept apart here.

Legend:
[1] = biological target: T1, human NNMT (mt-hNNMT) (Homo sapiens, UniProt P40261, E101A/E103A/K100A); experiment: NNMT activity assay (HPLC-UV detection of MNA), NNMT IC50 curves; conditions: for IC50: NI = no observable inhibition
T1 sequence (P40261 1-261 K100A/E101A/E103A limits assumed): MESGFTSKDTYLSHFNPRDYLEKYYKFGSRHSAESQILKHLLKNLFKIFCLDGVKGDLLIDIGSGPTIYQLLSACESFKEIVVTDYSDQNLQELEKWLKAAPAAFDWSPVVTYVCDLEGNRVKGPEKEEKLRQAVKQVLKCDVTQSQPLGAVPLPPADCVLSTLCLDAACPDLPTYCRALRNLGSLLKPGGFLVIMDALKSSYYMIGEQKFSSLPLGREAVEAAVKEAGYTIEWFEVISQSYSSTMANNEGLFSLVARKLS

[2] = tested on: NNMT activity in 3T3-L1 pre-adipocytes and differentiated adipocytes; experiment: Quantitative measurement of NNMT reaction product 1-MNA in cultured cells (LC/MS/MS); assay type: cell-based; conditions: 10 μM, 24 h
Description: Differentiation of 3T3-L1 pre-adipocytes. […] Briefly, standard culture media was supplemented with scheduled addition of adipogenic agents [3-isobutyl-1methyl xanthine (IBMX), Sigma Aldrich; MO, USA), dexamethasone (Sigma Aldrich; MO, USA), insulin (Gibco Life Technologies Inc.; Grand Island, N.Y., USA)] over 10 days to promote differentiation of 3T3-L1 fibroblasts into adipocytes; a combination of 1 mM IBMX, 1 μM dexamethasone, and 10 μg/ml of insulin in media were added to fully confluent 3T3-L1 fibroblasts for three days (days 0-3) to initiate differentiation. At day 3, the media was replaced with culture media supplemented with insulin (10 μg/ml). After day 6, cells were maintained in culture media until described experiments were begun (days 8-10).
Cellular 1-MNA concentrations were determined using an ultra-sensitive high-resolution AB Sciex 6500 Q-trap mass spectrometer coupled to an Agilent 1260 ultra-high pressure liquid chromatography (LC/MS/MS) system. Using multiple reaction monitoring (MRM) positive ion mode, the 1-MNA NNMT reaction product was quantified from peak area ratios using AB Sciex Analyst and MultiQuant 2.1 software and the parent precursor and Q3 masses set to m/z 137.1 and 94.1, respectively. Fragment ions at m/z of 92.1 and 77.9 were additionally used for the detection and confirmation of 1-MNA, respectively. […]. To determine the effect of NNMT inhibitor on NNMT activity in the pre-adipocytes and differentiated adipocytes (8×10^4 cells/well seeded prior to beginning differentiation), cells were treated with 30 μM inhibitor for 24 h. Similarly, to compare the relative effects of multiple NNMT inhibitors on NNMT activity in cultured adipocytes, differentiated adipocytes in 6-well plates were treated with 10 μM test compound for 24 h. Following treatment, media was replaced with 80% (v/v) methanol (cooled to −80° C.) containing 500 nmol 6-chloronicotinamide (6-CN) as an internal standard (IS) to extract cellular metabolites. Adherent cells were scrapped, then centrifuged at 4° C. and 13000 g for 15 min, and the resulting supernatants processed using established protocols. […]. Data were subsequently normalized to the IS peak area and transformed as % control values for cross-sample comparisons. […] Choice of inhibitor concentrations and time period was chosen based on the results from the MTT studies.

[3] = Parallel artificial membrane permeability assay (PAMPA); assay type: in vitro ADME; conditions: for Papp at 4 h, 400 μM: read-out: Flux; for Permeability Classification (passive transport): BCS classification
Description: Samples were tested in triplicates in three separate experiments.

[4] = Bi-directional permeability assay with Caco-2 cells; conditions: human
[5] = tested on: Caco-2 cells; experiment: as above; conditions: Caco-2
[6] = tested on: 3T3-L1 pre-adipocytes cells; experiment: MTT cell viability assay; assay type: cell-based; conditions: 3T3-L1 pre-adipocytes, 24 h
Description: Cells were treated for 24 h with 0.1-600 μM NNMT inhibitors in cell culture media. A 24 h time point was chosen based on a previous report of using this time period for transfecting or treating 3T3-L1 cells with NNMT anti-sense oligonucleotides or a small molecule NNMT product inhibitor (1-MNA), respectively, for phenotypic measures. MTT (3-(4,5-dimethylthiazol-2-yl)-2,5-diphenyltetrazolium bromide) (ATCC; Manassas, Va., USA) was added to each well and assayed according to the manufacturer's instructions. Absorbance corresponding to the amount of formazan dye produced by treated cells was normalized to that produced by control (untreated) cells to calculate % viable cells in the treated samples.

[7] = biological target: recombinant human NAMPT enzyme (Homo sapiens, UniProt P43490); experiment: NAMPT activity assay (fluorometric); assay type: biochemical; conditions: concentrations between 30 and 600 μM (data not shown)
[8] = biological target: recombinant human PRMT3 enzyme (Homo sapiens, UniProt O60678); experiment: PRMT3 activity assay (radiometric); assay type: biochemical; conditions: NC: not calculable (no significant inhibition); read-out: IC50, Protein arginine methyltransferase 3
Source text: Test compounds were screened in biochemical assays for activity against three structurally similar methyltransferases, including catechol-O-methyltransferase (COMT), DNA (cytosine-5)-methyltransferase 1 (DNMT1), and protein arginine methyltransferase 3 (PRMT3). Additional biochemical assays were used to test the ability of compounds to inhibit nicotinamide phosphoribosyl transferase (NAMPT) and NAD+-dependent protein deacetylase sirtuin 1 (SIRT1), two enzymes in the NAD+ biosynthesis/salvage pathway. All assays were performed by Reaction Biology Corporation (RBC; Malvern, Pa., USA) and complete assay details are noted below. For each test compound, IC50 values were calculated from dose-response curves established with 10 concentrations of a half-log dilution series. For each assay, established enzyme specific inhibitors were included as positive controls for enzyme function and assay reproducibility. IC50 values were determined by non-linear least-squares fitting of a 4-parameter dose-response curve to collected data points (Graphpad Prism 7.0; La Jolla, Calif., USA).
PRMT3 activity assay. […] The analogues, 1,8-diMQ and 5-amino-1MQ were tested at concentrations from 200 μM-10 nM and 600 μM-10 nM, respectively. Reactions were performed with 5 μM histone H3 (histone L-arginine) substrate, 1 μM radiolabeled S-adenosyl-L-[methyl-3H]methionine (SAM) co-substrate, and recombinant human PRMT3 enzyme. Activity was monitored via quantification of radiolabeled reaction product histone [methyl-3H]-L-arginine.

[9] = NNMT Inhibition IC50, mean ± SD of duplicate or triplicate measurements
[10] = 400 μM in PBS, 4 h, room temperature

Sequence of recombinant human NAMPT enzyme (P43490 whole entry): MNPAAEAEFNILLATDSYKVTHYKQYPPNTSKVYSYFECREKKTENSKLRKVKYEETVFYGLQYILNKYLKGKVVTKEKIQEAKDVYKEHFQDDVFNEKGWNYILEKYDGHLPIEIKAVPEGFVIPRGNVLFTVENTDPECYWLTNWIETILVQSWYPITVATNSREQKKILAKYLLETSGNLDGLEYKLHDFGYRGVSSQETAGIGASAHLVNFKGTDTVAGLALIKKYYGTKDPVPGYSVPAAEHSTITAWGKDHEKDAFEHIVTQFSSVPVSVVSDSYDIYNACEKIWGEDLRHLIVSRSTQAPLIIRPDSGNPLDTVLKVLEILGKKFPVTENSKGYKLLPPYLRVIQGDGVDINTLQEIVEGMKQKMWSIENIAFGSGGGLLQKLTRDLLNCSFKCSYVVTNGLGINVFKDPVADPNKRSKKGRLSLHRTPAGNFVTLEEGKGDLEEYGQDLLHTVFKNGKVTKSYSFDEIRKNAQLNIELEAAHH
Sequence of recombinant human PRMT3 enzyme (O60678 whole entry): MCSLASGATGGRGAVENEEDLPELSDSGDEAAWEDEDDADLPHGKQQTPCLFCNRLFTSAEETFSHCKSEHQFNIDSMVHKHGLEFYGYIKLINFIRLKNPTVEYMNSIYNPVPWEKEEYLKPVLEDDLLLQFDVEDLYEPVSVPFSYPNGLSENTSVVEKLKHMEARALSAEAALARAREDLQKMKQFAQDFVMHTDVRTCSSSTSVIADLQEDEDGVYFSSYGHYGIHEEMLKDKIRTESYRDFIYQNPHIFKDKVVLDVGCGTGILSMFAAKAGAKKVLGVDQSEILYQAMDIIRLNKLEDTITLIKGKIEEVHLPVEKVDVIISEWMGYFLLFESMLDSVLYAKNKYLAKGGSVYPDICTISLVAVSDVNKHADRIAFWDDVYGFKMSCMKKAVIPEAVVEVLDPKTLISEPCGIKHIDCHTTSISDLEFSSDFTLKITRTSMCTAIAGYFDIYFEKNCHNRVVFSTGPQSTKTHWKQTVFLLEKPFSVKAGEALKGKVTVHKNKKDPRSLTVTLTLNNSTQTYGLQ

CC(C(=O)c1ccc(Br)cc1)[n+]1cccc2ccccc21 (stereo not drawn) [1v]
IC50 [1, 9]: > 1000 µM

O=C1C2CC=C(Cl)CC2C(=O)N1CCC[n+]1cccc2ccccc21 (stereo not drawn) [1w]
IC50 [1, 9]: > 1000 µM

CC[n+]1ccc(C)c2ccccc21 [2a]
IC50 [1, 9]: 8.7 ± 2.6 µM

CC[n+]1cccc2cccc(C)c21 [2b]
IC50 [1, 9]: 3.1 ± 1.4 µM

Cc1cc[n+](CCO)c2ccccc12 [2c]
IC50 [1, 9]: 33.5 ± 9.9 µM

CC(=O)C[n+]1cccc2cccc(O)c21 [2d]
IC50 [1, 9]: 40.6 ± 13 µM

OC(CBr)C[n+]1cc(Br)cc2ccccc21 (stereo not drawn) [2e]
IC50 [1, 9]: > 1000 µM

CCC[n+]1cccc2cc(C)ccc21 [2f]
IC50 [1, 9]: > 1000 µM

CC(=O)C[n+]1cccc2cc(Cl)ccc21 [2g]
IC50 [1, 9]: > 1000 µM

CC(=O)C[n+]1cccc2cc(O)ccc21 [2h]
IC50 [1, 9]: > 1000 µM

Cc1ccc2c(ccc[n+]2CC(=O)c2ccccc2)c1 [2i]
IC50 ([1]; read-out: NNMT Inhibition IC50, mean ± SD of duplicate or triplicate measurements): > 1000 µM

C[n+]1cc(N)cc2cc(F)ccc21 [2j, 3-amino-6-fluoro-1-methylquinolin-1-ium]
inhibitory activity against NNMT (in words) [1]: inhibitory activity
IC50 [1, 9]: 1.2 ± 0.2 µM
1-MNA levels in differentiated adipocytes relative to control [2]: significantly decreased
Papp at 4 h, 400 μM [3, 10]: 1.08 ×10⁻⁶ cm/s
Permeability Classification (passive transport) [3]: Moderate permeability

Cc1ccc(C(F)(F)F)c2ccc[n+](C)c12 [2k]
inhibitory activity against NNMT (in words) [1]: inhibitory activity
IC50 [1, 9]: 87 ± 26.1 µM

C[n+]1ccc(Cl)c2cccc(C(F)(F)F)c21.O=S(=O)([O-])C(F)(F)F [2l, 4-chloro-1-methyl-8-(trifluoromethyl)quinolin-1-ium Trifluoromethanesulfonate]
inhibitory activity against NNMT (in words) [1]: inhibitory activity
IC50 [1, 9]: > 1000 µM

C[n+]1c(N)c(N)cc2ccccc21 [2m]
efflux ratio at 2 h, 10 μM ([4]; Caco-2): 4.03
Papp A→B at 2 h, 10 μM ([4]; Caco-2, pH 7.4): 5.27 ×10⁻⁶ cm/s
Papp B→A at 2 h, 10 μM ([4]; Caco-2, pH 7.4): 21.2 ×10⁻⁶ cm/s
Classification (active transport / efflux) ([5]; listed as 2,3-diamine-1MQ): Moderate permeability
Classification (active transport / efflux) ([5]; listed as 2,3-diamino-1MQ): moderate bi-directional active transport with moderate efflux ratio
inhibitory activity against NNMT (in words) [1]: inhibitory activity
IC50 [1, 9]: 2.8 ± 0.5 µM
cell viability ([6]; 300 μM): did not impact cell viability
cytotoxicity ([6]; 600 μM (highest concentration tested)): ~40%
1-MNA levels in differentiated adipocytes relative to control [2]: significantly decreased
Papp at 4 h, 400 μM [3, 10]: 3.9 ×10⁻⁶ cm/s
Permeability Classification (passive transport) ([3]; listed as 2,3-diamine-1MQ): High permeability
Permeability Classification (passive transport) ([3]; listed as 2,3-diamino-1MQ): high passive permeability

Cc1ccc2c(ccc(C)[n+]2C)c1 [2n]
IC50 [1, 9]: > 1000 µM

C[n+]1cccc2c(N)c(F)ccc21 [5-amino-6-fluoro-1MQ]
inhibition of NAMPT (in words) [7]: no inhibition

c1ccc2ncccc2c1 [Quinoline]
Flux [3, 10]: 3.39e-05 cm/s
Permeability Classification (passive transport) [3]: High permeability

CNC(=C[N+](=O)[O-])NCCSCc1ccc(CN(C)C)o1 [Ranitidine, reference compound]
Classification (active transport / efflux) [5]: Low permeability

Nc1ncnc2c1ncn2[C@@H]1O[C@H](CSCC[C@H](N)C(=O)O)[C@@H](O)[C@H]1O [SAH, S-adenosylhomocysteine, reference compound]
IC50 [8]: 6.6 ± 1.2 µM
